Assay: xn = mol fraction of the nth substance listed
Settings: 100 kPa

OCCO + CCCC[n+]1ccn(C)c1.O=S(=O)([O-])C(F)(F)F
x2 = 0
Settings | speed of sound [m/s] | viscosity [mPa·s]
298.15 K | 1655 | 16.39
308.15 K | 1631.5 | 11.16
313.15 K | 1619.7 | 9.34
318.15 K | 1607.9 | 7.91
323.15 K | 1596.1 | 6.75

CCCC[n+]1ccn(C)c1.O=S(=O)([O-])C(F)(F)F + OCCO
Settings | speed of sound [m/s] | viscosity [mPa·s]
298.15 K, x1 = 0.1936 | 1517.5 | 17.41
298.15 K, x1 = 0.2985 | 1478.8 | 20.69
298.15 K, x1 = 0.3912 | 1456.1 | 23.59
298.15 K, x1 = 0.4999 | 1437.2 | 26.6
298.15 K, x1 = 0.6055 | 1423.5 | 29.8
298.15 K, x1 = 0.7966 | 1410.5 | 42
298.15 K, x1 = 0.9035 | 1404.8 | 57.9
298.15 K, x1 = 1 | 1393.2 | 82.4
303.15 K, x1 = 0.1936 | 1505.9 | 14.07
303.15 K, x1 = 0.2985 | 1467.3 | 16.81
303.15 K, x1 = 0.3912 | 1444.6 | 19.28
303.15 K, x1 = 0.6055 | 1412.2 | 24.5
303.15 K, x1 = 0.7966 | 1399.2 | 34.3
303.15 K, x1 = 0.9035 | 1393.6 | 47
303.15 K, x1 = 1 | 1382.8 | 66.7
308.15 K, x1 = 0.0926 | 1551.3 | 10.51
308.15 K, x1 = 0.1936 | 1494.4 | 11.7
308.15 K, x1 = 0.3912 | 1433.2 | 15.95
308.15 K, x1 = 0.6055 | 1400.9 | 20.86
308.15 K, x1 = 0.9035 | 1382.5 | 38.6
308.15 K, x1 = 1 | 1371.7 | 52.9
313.15 K, x1 = 0.0926 | 1539.6 | 8.82
313.15 K, x1 = 0.1936 | 1482.8 | 9.82
313.15 K, x1 = 0.3912 | 1421.9 | 13.48
313.15 K, x1 = 0.6055 | 1389.8 | 17.79
313.15 K, x1 = 0.7966 | 1376.9 | 24.6
313.15 K, x1 = 0.9035 | 1371.5 | 32.3
313.15 K, x1 = 1 | 1360.7 | 43.7
318.15 K, x1 = 0.1936 | 1471.4 | 8.3
318.15 K, x1 = 0.2985 | 1433.2 | 9.91
318.15 K, x1 = 0.3912 | 1410.7 | 11.51
318.15 K, x1 = 0.6055 | 1378.7 | 15.37
318.15 K, x1 = 0.6922 | 1371.2 | 17.42
318.15 K, x1 = 0.7966 | 1365.9 | 21.09
318.15 K, x1 = 0.9035 | 1360.5 | 27.3
318.15 K, x1 = 1 | 1349.9 | 36.3
323.15 K, x1 = 0.0926 | 1516.4 | 6.2
323.15 K, x1 = 0.2985 | 1421.9 | 8.4
323.15 K, x1 = 0.4999 | 1381 | 11.65
323.15 K, x1 = 0.6055 | 1367.7 | 13.42
323.15 K, x1 = 0.6922 | 1360.3 | 15.17
323.15 K, x1 = 0.9035 | 1349.7 | 23.24
323.15 K, x1 = 1 | 1338.8 | 30.6
